From patent US12077483B2, “Modified amine lipids” (Intellia Therapeutics, Inc., priority 2018, dated 2024) come the findings set out here.

Each structure is given as a SMILES string.

One data set concerns mouse TTR. The experiment in a line: Serum TTR ELISA in mice after LNP delivery. The class given is in vivo. The settings on record: mouse serum, relative to TSS control of same experiment. The gist of the method:
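Mouse TTR in serum was quantified by ELISA (samples diluted e.g. 10,000- and/or 2,500-fold) 6–7 days after dosing CD-1 females with LNP, typically 0.1 mpk. Values are reported relative to vehicle-treated controls (%).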
A general note: In an ELISA, binding on a coated surface is turned into a signal by an enzyme label.

Data set [1] can be described thus: RNA encapsulation efficiency of LNP (Ribogreen fluorescence assay). It counts as physicochemical. The note with it: LNP with the compound as amine lipid. Here is the method:
A fluorescence-based assay (Ribogreen®, ThermoFisher Scientific) is used to determine total RNA concentration and free RNA. Encapsulation efficiency is calculated as (Total RNA—Free RNA)/Total RNA. LNP samples are diluted appropriately with 1× TE buffer containing 0.2% Triton-X 100 to determine total RNA or 1× TE buffer to determine free RNA. Standard curves are prepared by utilizing the starting RNA solution used to make the compositions and diluted in 1× TE buffer+/−0.2% Triton-X 100. Diluted RiboGreen® dye (according to the manufacturer's instructions) is then added to each of the standards and samples and allowed to incubate for approximately 10 minutes at room temperature, in the absence of light. A SpectraMax M5 Microplate Reader (Molecular Devices) is used to read the samples with excitation, auto cutoff and emission wavelengths set to 488 nm, 515 nm, and 525 nm respectively. Total RNA and free RNA are determined from the appropriate standard curves.
Encapsulation efficiency is calculated as (Total RNA−Free RNA)/Total RNA. The same procedure may be used for determining the encapsulation efficiency of a DNA-based cargo component. For single-strand DNA, Oligreen Dye may be used and for double-strand DNA, Picogreen Dye.

Data set [2] in a line: pKa of amine lipid by TNS fluorescence. The class given is physicochemical. The settings on record: probe TNS (6-(p-toluidino)-2-naphthalenesulfonic acid sodium salt), unformulated amine lipid in ethanol, sodium phosphate buffers -9.0. In short, it runs like this: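 pKa derived from a sigmoidal fit of normalized TNS fluorescence (321 nm excitation, 448 nm emission) versus pH. Lipid from ethanol stock diluted to about 100 μM final in 0.1 M phosphate buffers, pH 4.5–9.0.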

Data set [3] is described as follows: LNP average particle size and polydispersity by dynamic light scattering. It counts as physicochemical. The note with it: LNP with the compound as amine lipid. The source says: The LNPs have a size of about 1 to about 1,000 nm, about 10 to about 500 nm, about 20 to about 500 nm, in a sub-embodiment about 50 to about 400 nm, in a sub-embodiment about 50 to about 300 nm, in a sub-embodiment about 50 to about 200 nm, and in a sub-embodiment about 50 to about 150 nm, and in another sub-embodiment about 60 to about 120 nm. Preferably, the LNPs have a size from about 60 nm to about 100 nm. The average sizes (diameters) of the fully formed LNP, may be measured by dynamic light scattering on a Malvern Zetasizer. The LNP sample is diluted in phosphate buffered saline (PBS) so that the count rate is approximately 200-400 kcps. The data is presented as a weighted average of the intensity measure.
In some embodiments, the LNPs have a size of about 75 to about 120 nm. In some embodiments, the LNPs have a size of about 75 to about 100 nm. Unless indicated otherwise, all sizes referred to herein are the average sizes (diameters) of the fully formed nanoparticles, as measured by dynamic light scattering on a Malvern Zetasizer. The nanoparticle sample is diluted in phosphate buffered saline (PBS) so that the count rate is approximately 200-400 kcps. The data is presented as a weighted-average of the intensity measure (Z-average diameter).
Dynamic Light Scattering (“DLS”) is used to characterize the polydispersity index (“pdi”) and size of the LNPs of the present disclosure. DLS measures the scattering of light that results from subjecting a sample to a light source. PDI, as determined from DLS measurements, represents the distribution of particle size (around the mean particle size) in a population, with a perfectly uniform population having a PDI of zero. Electropheretic light scattering is used to characterize the surface charge of the LNP at a specified pH. The surface charge, or the zeta potential, is a measure of the magnitude of electrostatic repulsion/attraction between particles in the LNP suspension. Asymmetric-Flow Field Flow Fractionation—Multi-Angle Light Scattering (AF4-MALS) is used to separate particles in the composition by hydrodynamic radius and then measure the molecular weights, hydrodynamic radii and root mean square radii of the fractionated particles. […] Nanoparticle tracking analysis (NTA, Malvern Nanosight) can be used to determine particle size distribution as well as particle concentration. LNP samples are diluted appropriately and injected onto a microscope slide. A camera records the scattered light as the particles are slowly infused through field of view. After the movie is captured, the Nanoparticle Tracking Analysis processes the movie by tracking pixels and calculating a diffusion coefficient. This diffusion coefficient can be translated into the hydrodynamic radius of the particle. The instrument also counts the number of individual particles counted in the analysis to give particle concentration.
LNP compositions are analyzed for average particle size, polydispersity index (pdi), total RNA content, encapsulation efficiency of RNA, and zeta potential. LNP compositions may be further characterized by lipid analysis, AF4-MALS, NTA, and/or cryo-EM. Average particle size and polydispersity are measured by dynamic light scattering (DLS) using a Malvern Zetasizer DLS instrument. LNP samples were diluted with PBS buffer prior to being measured by DLS. Z-average diameter which is an intensity-based measurement of average particle size was reported along with number average diameter and pdi. A Malvern Zetasizer instrument is also used to measure the zeta potential of the LNP. Samples are diluted 1:17 (50 μL into 800 μL) in 0.1×PBS, pH 7.4 prior to measurement.

Setting [4] is: Expt. 2, composition ratio (mol %) 50/9/39.5/3 for Cmpnd 49, 50/9/39.5/1.5 for the others.
[5] abbreviates: Expt. 4, composition ratio (mol %) 50/9/38/3 for Cmpnd 49, 50/10/38.5/1.5 for the others.
Setting [6] is: Expt. 8, composition ratio (mol %) 50/9/38/3 for Cmpnd 49, 50/10/38.5/1.5 for the others.
Where [7] appears, read: Expt. 7, composition ratio (mol %) 50/9/38/3 for Cmpnd 49, 50/10/38.5/1.5 for the others.

Turning to `CCCCC/C=C\C/C=C\CCCCCCCC(=O)OCC(COC(=O)CCCCCCC/C=C\C/C=C\CCCCC)OC(=O)CCC(CCCC)OC(=O)NCC1CCCN1C` (stereo not shown) [Compound 67, 2-((4-((((1-methylpyrrolidin-2-yl)methyl)carbamoyl)oxy)octanoyl)oxy)propane-1,3-diyl (9Z,9′Z,12Z,12′Z)-bis(octadeca-9,12-dienoate)], the “Serum TTR % TSS” value in the data set with mouse TTR (dose 0.03 mpk) worked out at 65.41 % TSS. Further, in data set [1] (setting [4]), the “Encapsulation (%)” value is recorded as 99%. Besides, the pKa (usually the pH at which an ionisable group is half protonated) in data set [2] stood at 6.43. Besides, in data set [3] (setting [4]), the “Num Ave Size (nm)” value amounted to 82.14 nm, the PDI came to 0.043 and the “Z-Ave Size (nm)” value worked out at 102.20 nm.
Take `CCCCC/C=C\C/C=C\CCCCCCCC(=O)OCC(COC(=O)CCCCCCC/C=C\C/C=C\CCCCC)OC(=O)CCC(CCCC)OC(=O)OCCCN1CCCC1` (stereo not shown) [Compound 68, 2-((4-(((3-(pyrrolidin-1-yl)propoxy)carbonyl)oxy)octanoyl)oxy)propane-1,3-diyl (9Z,9′Z,12Z,12′Z)-bis(octadeca-9,12-dienoate)]: the “Serum TTR % TSS” value in the data set with mouse TTR (dose 0.03 mpk) stood at 68.58 % TSS. For the same compound, the “Encapsulation (%)” value in data set [1] (setting [4]) came out at 99%. In addition, the pKa in data set [2] is 6.32. Moreover, in data set [3] (setting [4]), the “Num Ave Size (nm)” value was 100.4 nm, the PDI was found to be 0.051 and the “Z-Ave Size (nm)” value was determined as 122.30 nm.
In the case of `CCCCC/C=C\C/C=C\CCCCCCCC(=O)OCC(COC(=O)CCCCCCC/C=C\C/C=C\CCCCC)OC(=O)CCC(CCCCC)OC(=O)NCCN(C)CC` (stereo not shown) [Compound 69, 2-((4-(((2-(ethyl(methyl)amino)ethyl)carbamoyl)oxy)nonanoyl)oxy)propane-1,3-diyl (9Z,9′Z,12Z,12′Z)-bis(octadeca-9,12-dienoate)], the “Serum TTR % TSS” value with mouse TTR (dose 0.03 mpk) came out at 54% TSS. In addition, the “Serum TTR % TSS” value in the data set with mouse TTR (dose 0.1 mpk) is given as 12% TSS. Moreover, the “Encapsulation (%)” value in data set [1] (setting [5]) came to 96%. Moreover, in data set [2], the pKa came to 6.44. Further, in data set [3] (setting [5]), the “Num Ave Size (nm)” value came out at 88.76 nm, the PDI came to 0.017 and the “Z-Ave Size (nm)” value turned out to be 108.90 nm.
Regarding `CCCCC/C=C\C/C=C\CCCCCCCC(=O)OCC(COC(=O)CCCCCCC/C=C\C/C=C\CCCCC)OC(=O)CCC(CCCCC)OC(=O)NCC1CCCN1C` (stereo not shown) [Compound 70, 2-((4-((((1-methylpyrrolidin-2-yl)methyl)carbamoyl)oxy)nonanoyl)oxy)propane-1,3-diyl (9Z,9′Z,12Z,12′Z)-bis(octadeca-9,12-dienoate)], the “Serum TTR % TSS” value in the data set with mouse TTR (dose 0.03 mpk) is listed as 126.29 % TSS. The “Serum TTR % TSS” value in the data set with mouse TTR (dose 0.1 mpk) is 87.49 % TSS. Further, the “Encapsulation (%)” value in data set [1] (setting [6]) amounted to 99%. In addition, the pKa in data set [2] stood at 6.61. In data set [3] (setting [6]), the “Num Ave Size (nm)” value is on record as 102 nm, the PDI was 0.018 and the “Z-Ave Size (nm)” value was determined as 124.2 nm.
As to `CCCCC/C=C\C/C=C\CCCCCCCC(=O)OCC(COC(=O)CCCCCCC/C=C\C/C=C\CCCCC)OC(=O)CCC(CCCCC)OC(=O)OCCCN1CCCC1` (stereo not shown) [Compound 71, 2-((4-(((3-(pyrrolidin-1-yl)propoxy)carbonyl)oxy)nonanoyl)oxy)propane-1,3-diyl (9Z,9′Z,12Z,12′Z)-bis(octadeca-9,12-dienoate)], the “Serum TTR % TSS” value in the data set on mouse TTR (dose 0.03 mpk) is on record as 47.425 % TSS. Also, in the data set on mouse TTR (dose 0.1 mpk), the “Serum TTR % TSS” value stood at 15.055 % TSS. Further, the “Encapsulation (%)” value in data set [1] (setting [7]) is listed as 97%. The pKa in data set [2] was 6.28. Further, in data set [3] (setting [7]), the “Num Ave Size (nm)” value is reported as 86.63 nm, the PDI amounted to 0.035 and the “Z-Ave Size (nm)” value is reported as 104.5 nm.
With `CCCCC/C=C\C/C=C\CCCCCCCC(=O)OCC(COC(=O)CCCCCCC/C=C\C/C=C\CCCCC)OC(=O)CCC(CCCCCCC)OC(=O)NCCN(C)CC` (stereo not shown) [Compound 73, 2-((4-(((2-(ethyl(methyl)amino)ethyl)carbamoyl)oxy)undecanoyl)oxy)propane-1,3-diyl (9Z,9′Z,12Z,12′Z)-bis(octadeca-9,12-dienoate)], the “Serum TTR % TSS” value in the data set on mouse TTR (dose 0.03 mpk) came out at 25% TSS. In addition, the “Serum TTR % TSS” value in the data set on mouse TTR (dose 0.1 mpk) came out at 4% TSS. In data set [1] (setting [5]), the “Encapsulation (%)” value is 97%. Besides, the pKa in data set [2] worked out at 6.41. Further, in data set [3] (setting [5]), the “Num Ave Size (nm)” value amounted to 76.59 nm, the PDI is 0.029 and the “Z-Ave Size (nm)” value came to 95.81 nm.
